Key:
AD38 cells = experiment: AD38 viability normalized to DMSO control; type: cell-based; conditions: 10 μM compound, vs DMSO control; Table 9
Method: AD38 cells were then re-suspended with 10 mL of treatment medium and counted. Wells of a collagen coated 96-well NUNC microtiter plate were seeded at 50,000/well in 180 μL of treatment medium, and 20 μL of either 10% DMSO (Control) or a 10× solution of test compound in 10% DMSO in treatment media was added for a final compound concentration 1, 3, or 10 μM (1.0% final [DMSO]) and plates were incubated for 6 days at 37° C.

[1] = system: HBV viral load, AD38 cells; experiment: Activity of test compounds on viral production from AD38 cells (viral load by quantitative PCR of the core sequence in supernatant); type: cell-based, Hepatitis B virus; conditions: 10 μM compound, 6 days at 37° C., vs DMSO control wells, Table 9; for activity at 10 µM: Hepatitis B virus, 144 h, read-out: AD38 Viral Load (CpAM/DMSO %) at 10 μM
Summary of the method: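 Cells seeded at 50,000/well on collagen-coated plates and exposed for 6 days at 37 °C to compound at 1, 3 or 10 μM final (1.0% DMSO). Supernatant viral DNA measured by TaqMan qPCR of the core sequence against known standards, compared with DMSO control wells.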

Compound	AD38 Viability Normalized Result (CPAM/DMSO %) at 10 μM (AD38 cells) [%]	AD38 Viral Load (CpAM/DMSO %) at 10 μM [1] [%]	activity at 10 µM [1] [%]
COC(=O)Cc1ccc(S(=O)(=O)N2CCN(c3nc(Nc4ccc(F)cc4)cc(C(F)(F)F)n3)CC2)cc1 [Compound 1408, methyl 2-(4-((4-(4-((4-fluorophenyl)amino)-6-(trifluoromethyl)pyrimidin-2-yl)piperazin-1-yl)sulfonyl)phenyl) acetate]	107	8	
C[C@@H](Oc1ccc(S(=O)(=O)N2CCN(c3nc(Nc4ccc(F)cc4)cc(C(F)(F)F)n3)CC2)cc1)C(=O)O [Compound 1409, (R)-2-(4-((4-(4-((4-fluorophenyl)amino)-6-(trifluoromethyl)pyrimidin-2-yl)piperazin-1-yl)sulfonyl)phenoxy) propanoic acid]	108		59
C[C@H](Oc1ccc(S(=O)(=O)N2CCN(c3nc(Nc4ccc(F)cc4)cc(C(F)(F)F)n3)CC2)cc1)C(=O)O [Compound 1410, (S)-2-(4-((4-(4-((4-fluorophenyl)amino)-6-(trifluoromethyl)pyrimidin-2-yl)piperazin-1-yl)sulfonyl)phenoxy) propanoic acid]	58		14
Cc1cc(Nc2ccc(F)cc2)nc(N2CCN(S(=O)(=O)c3cccc(CC(=O)O)c3)CC2)n1 [Compound 1411, 2-(3-((4-(4-((4-fluorophenyl)amino)-6-methylpyrimidin-2-yl)piperazin-1-yl)sulfonyl)phenyl) acetic acid]	102		117
COC(=O)Cc1cccc(S(=O)(=O)N2CCN(c3nc(C)cc(Nc4ccc(F)cc4)n3)CC2)c1 [Compound 1412, methyl 2-(3-((4-(4-((4-fluorophenyl)amino)-6-methylpyrimidin-2-yl)piperazin-1-yl)sulfonyl)phenyl) acetate]	109		61
O=S(=O)(c1ccc(OC(F)(F)F)cc1)N1CCN(c2nc(Nc3ccccn3)cc(C(F)(F)F)n2)CC1 [Compound 1415]	101		120
O=S(=O)(c1ccc(OC(F)(F)F)cc1)N1CCN(c2nc(Nc3nccs3)cc(C(F)(F)F)n2)CC1 [Compound 1418, N-(2-(4-((4-(trifluoromethoxy)phenyl)sulfonyl)piperazin-1-yl)-6-(trifluoromethyl)pyrimidin-4-yl) thiazol-2-amine]	100		120
O=S(=O)(c1ccc(OC(F)(F)F)cc1)N1CCCN(c2nc(Nc3ccc(F)cc3)cc(C(F)(F)F)n2)CC1 [Compound 1419]	93		11

Reference: patent publication US10273228B2, “Hepatitis B viral assembly effectors” (Indiana University Research and Technology Corporation, priority 2015, dated 2019)
